In patent US20140073691A1, “Methods and composition for Treating Thyroid Hormone Related Disorders” (Zafgen, Inc., priority 2010, published 2014):

Test system: plasma thyroid stimulating hormone (TSH)
Experiment: Administration of MetAP-2 inhibitor to obese subjects: plasma TSH and circulating thyroid hormones
Format: in vivo, human (obese subjects)
Procedure: FIG. 1 depicts the results of administration of a MetAP2 inhibitor to obese patients and indicates the reduction in plasma thyroid stimulating hormone, without reductions in circulating thyroid hormone (free T3 and T4) concentrations.
8 obese subjects who were not taking any thyroid medication were treated with O-(4-dimethylaminoethoxycinnamoyl)fumagillol at a dose of 0.9 mg per square meter of body surface area (approximately 1.8 mg per dose) for 26 days. […] (FIG. 1). This is indicative of improved thyroid hormone sensitivity and a reduction in thyroid hormone resistance.

## CO[C@@H]1[C@H](OC(=O)C=Cc2ccc(OCCN(C)C)cc2)CC[C@]2(CO2)[C@H]1[C@@]1(C)O[C@@H]1CC=C(C)C [O-(4-dimethylaminoethoxycinnamoyl)fumagillol]
8 obese subjects not taking thyroid medication, 0.9 mg per square meter of body surface area (approximately 1.8 mg per dose) for 26 days
  plasma thyroid stimulating hormone (TSH): significant reduction
8 obese subjects, 0.9 mg per square meter of body surface area for 26 days, T4 (FIG. 1)
  circulating thyroid hormone T4: without a reduction
8 obese subjects, 0.9 mg per square meter of body surface area for 26 days, free T3 (FIG. 1)
  circulating thyroid hormone T3: without a reduction
